Tests used:
C57BL/6 mice [1] = assay: Liver histology (H&E, PAS, Oil Red O) in fat-free high carbohydrate diet (HCD) mouse model of hepatic steatosis; type: in vivo; conditions: HCD+MAR mice, 100 mg/kg twice daily, 19 days
Experimental: Experiments were performed on 5-6 week-old C57BL/6 mice (Jackson Laboratories, Bar Harbor, Me.). The animals, in groups of five, were housed in a barrier room and were acclimated to their environment for at least 72 hours prior to the initiation of each experiment. Animal protocols complied with the NIH Animal Research Advisory Committee guidelines and were approved by the Children's Hospital Boston Animal Care and Use Committee. Control animals (n=5) received normal chow and water ad libitum. All animals in the experimental groups were fed a fat-free, high carbohydrate liquid diet (HCD) ad libitum placed in one bottle per cage as previously described (3, 62). No additional sources of nutrition or hydration were provided. The HCD liquid solution contained 20% dextrose, a commercial mixture of 2% essential and nonessential amino acids (TrophAmine, B. Braun Medical, Irvine, Calif.), 2 ml trace elements (Trace Elements Injection 4, USP-Pediatric, American Regent Shirley, N.Y.), and 5 ml multivitamins (M.V.I. PediatricTM, Mayne Pharma, Paramus, N.J.). Each liter of HCD contained 30 meq sodium, 20 meq potassium chloride, 15 meq calcium, 10 meq magnesium, and 10 mM phosphate. The bottles were replaced daily with fresh HCD solution. HCD animals (n=5) received HCD only and no additional treatment for 19 days. The HCD+MAR animals (n=15) additionally received 100 mg/kg of MarimastatTM in 0.45% methylcellulose (Sigma-Aldrich Corporation, St. Louis, Mo.) vehicle twice daily via orogastric gavage. The animals were individually weighed every third day and at sacrifice. We then performed a midline laparotomy to observe, excise, and weigh the liver. Approximately one half of the liver was fixed in 10% formalin at 4° C. overnight, washed with phosphate buffered saline, and then embedded in paraffin. After cutting 5 μm sections, slides were stained at the Department of Pathology, Children's Hospital Boston with H&E to examine cellular architecture and lipid accumulation, and with periodic acid-Schiff (PAS) to identify the presence of glycogen. Another portion of the liver was collected as frozen sections, placed in embedding medium (Optimal Cutting Temperature OCT, […], Torrance, Calif.), and immersed in cold 2-methylbutane (Aldrich, Milwaukee, Wis.) on dry ice. The samples were stored at […]. Sections were stained at the Department of Pathology, Children's Hospital Boston with Oil Red O to detect fat.

C57BL/6 mice [2] = assay: MR spectroscopy of percentage liver fat content in HCD mouse model; type: in vivo; conditions: HCD+MAR mice, 100 mg/kg twice daily orogastric gavage, 19 days; mean±SEM; P<0.05 vs HCD-only (24.1±1.7%)
Experimental: Experiments were performed on 5-6 week-old C57BL/6 mice (Jackson Laboratories, Bar Harbor, Me.). The animals, in groups of five, were housed in a barrier room and were acclimated to their environment for at least 72 hours prior to the initiation of each experiment. Animal protocols complied with the NIH Animal Research Advisory Committee guidelines and were approved by the Children's Hospital Boston Animal Care and Use Committee. Control animals (n=5) received normal chow and water ad libitum. All animals in the experimental groups were fed a fat-free, high carbohydrate liquid diet (HCD) ad libitum placed in one bottle per cage as previously described (3, 62). No additional sources of nutrition or hydration were provided. […] Three 2 mm thick slices were imaged for each sample and the saturation recovery curves were generated from signal intensities measured in identically sized regions of interest within a given slice. […] Spectra were obtained following Fourier transformation and phasing, and percent fat content was determined relative to water by numerical integration of the areas under the lipid and water peaks by an independent blinded reviewer.

IL-6 = assay: ELISA for serum IL-6 levels; type: in vivo, mouse; conditions: HCD+MAR vs HCD-only group, P=0.001
Experimental: Control animals (n=5) received normal chow and water ad libitum. All animals in the experimental groups were fed a fat-free, high carbohydrate liquid diet (HCD) ad libitum placed in one bottle per cage as previously described (3, 62). No additional sources of nutrition or hydration were provided. The HCD liquid solution contained 20% dextrose, a commercial mixture of 2% essential and nonessential amino acids (TrophAmine, B. Braun Medical, Irvine, Calif.), 2 ml trace elements (Trace Elements Injection 4, USP—Pediatric, American Regent Shirley, N.Y.), and 5 ml multivitamins (M.V.I. Pediatric™, Mayne Pharma, Paramus, N.J.). Each liter of HCD contained 30 meq sodium, 20 meq potassium chloride, 15 meq calcium, 10 meq magnesium, and 10 mM phosphate. The bottles were replaced daily with fresh HCD solution. HCD animals (n=5) received HCD only and no additional treatment for 19 days. The HCD+MAR animals (n=15) additionally received 100 mg/kg of Marimastat™ in 0.45% methylcellulose (Sigma-Aldrich Corporation, St. Louis, Mo.) vehicle twice daily via orogastric gavage. The animals were individually weighed every third day and at sacrifice. Mouse serum IL-6 levels were determined using a commercial ELISA kit (Quantikine®, R&D systems, Inc., Minneapolis, Minn.). Optical density was read at 450 nm and analyzed with Softmax® PRO Software (Molecular Devices Corporation, Sunnyvale, Calif.).

CNC(=O)[C@@H](NC(=O)[C@H](CC(C)C)[C@H](O)C(=O)NO)C(C)(C)C [Marimastat]
H&E inflammatory changes / necrosis (C57BL/6 mice [1]): occasional focal cellular infiltrates consistent with focal necrosis | Oil Red O staining (fat in liver) (C57BL/6 mice [1]): minimal presence of fat | PAS staining (glycogen storage) (C57BL/6 mice [1]): highly positive, granular, and widespread | steatosis on H&E sections (C57BL/6 mice [1]): No definitive steatosis | liver fat content by MR spectroscopy (C57BL/6 mice [2]): 8.1±1.2% | serum IL-6 level (IL-6): significantly higher

Source: patent US7897591B2, “Method of treating fatty liver disease” (priority 2005, dated 2011)
